Converted amounts (≈) assume the structure as drawn.
Experiments:
[1] = Inhibition of Escherichia coli parE assessed as release of inorganic phosphate from ATP hydrolysis after 30 mins by coupled spectrophotometric assay
[2] = Inhibition of Francisella tularensis GyrB assessed as release of inorganic phosphate from ATP hydrolysis after 30 mins by coupled spectrophotometric assay
[3] = test system: Escherichia coli; experiment: Antibacterial activity against Escherichia coli BW25113 harboring deltatolC by broth microdilution method; assay type: functional
[4] = test system: Escherichia coli; experiment: Antibacterial activity against permeabilized Escherichia coli IBAS849 by broth microdilution method; assay type: functional
[5] = test system: Escherichia coli; experiment: Antibacterial activity against wild type Escherichia coli ATCC 25922 by broth microdilution method; assay type: functional
[6] = test system: Staphylococcus aureus; experiment: Antibacterial activity against Staphylococcus aureus ATCC 13709 by broth microdilution method; assay type: functional
[7] = Inhibition of Escherichia coli GyrB assessed as release of inorganic phosphate from ATP hydrolysis after 30 mins by coupled spectrophotometric assay
[8] = test system: Pseudomonas aeruginosa; experiment: Antibacterial activity against Pseudomonas aeruginosa PAO1 by broth microdilution method; assay type: functional
[9] = test system: Acinetobacter baumannii; experiment: Antibacterial activity against Acinetobacter baumannii ATCC 19606 by broth microdilution method; assay type: functional; settings: ATCC 19606 = CIP 70.34 = JCM 6841
[10] = test system: Klebsiella pneumoniae; experiment: Antibacterial activity against Klebsiella pneumoniae ATCC 700603 by broth microdilution method; assay type: functional
[11] = test system: Escherichia coli; experiment: Antibacterial activity against wild type Escherichia coli ATCC 25922 by broth microdilution method in presence of 20% mouse serum; assay type: functional
[12] = test system: Haemophilus influenzae; experiment: Antibacterial activity against Haemophilus influenzae ATCC 49247 by broth microdilution method; assay type: functional
[13] = test system: Streptococcus pneumoniae; experiment: Antibacterial activity against Streptococcus pneumoniae ATCC 51916 by broth microdilution method; assay type: functional
[14] = test system: Staphylococcus aureus; experiment: Antibacterial activity against Staphylococcus aureus ATCC 13709 by broth microdilution method in presence of 20% mouse serum; assay type: functional
[15] = Inhibition of Francisella tularensis parE assessed as release of inorganic phosphate from ATP hydrolysis after 30 mins by coupled spectrophotometric assay

SMILES	Ki [1] [nM]	Ki [2] [nM]	MIC [3] [µg/mL]	MIC [4] [µg/mL]	MIC [5] [µg/mL]	MIC [6] [µg/mL]	Ki [7] [nM]	MIC [8] [µg/mL]	MIC [9] [µg/mL]	MIC [10] [µg/mL]	MIC [11] [µg/mL]	MIC [12] [µg/mL]	MIC [13] [µg/mL]	MIC [14] [µg/mL]	Ki [15] [nM]
CCNC(=O)NC1CN(c2nc(Sc3cnc4nccnc4c3)nc3[nH]c(CC)c(Cl)c23)C1	2	< 1	> 64	> 64	> 64	> 64	–	–	–	–	–	–	–	–	–
CCc1[nH]c2nc(Sc3cnc4nccnc4c3)nc(N3CC(NS(C)(=O)=O)C3)c2c1Cl	9	< 1	–	32 (≈ 65.2 µM)	> 64	4 (≈ 8.15 µM)	–	–	–	–	–	–	–	–	–
CCc1[nH]c2nc(Sc3cnc4nccnc4c3)nc(N3CC(NC(=O)C4CC4)C3)c2c1Cl	3	< 1	4 (≈ 8.32 µM)	8 (≈ 16.6 µM)	> 64	1 (≈ 2.08 µM)	–	–	–	–	–	–	–	–	–
CCc1[nH]c2nc(Sc3cnc4nccnc4c3)nc(N3CC(NC(=O)COC)C3)c2c1Cl	10	< 1	2 (≈ 4.12 µM)	4 (≈ 8.25 µM)	> 64	0.25 (≈ 0.515 µM)	–	–	–	–	–	–	–	–	–
CCc1[nH]c2nc(Sc3cnc4nccnc4c3)nc(N3CC(NC(=O)c4cnccn4)C3)c2c1Cl	9	< 1	4 (≈ 7.71 µM)	8 (≈ 15.4 µM)	64 (≈ 123 µM)	1 (≈ 1.93 µM)	–	–	–	–	–	–	–	–	–
CCc1[nH]c2nc(Sc3cnc4nccnc4c3)nc(N3C[C@@H]4[C@H](C3)[C@H]4NC(=N)N)c2c1Cl	< 1	–	2 (≈ 4.16 µM)	2 (≈ 4.16 µM)	64 (≈ 133 µM)	0.25 (≈ 0.52 µM)	–	–	–	–	–	–	–	–	–
CCc1[nH]c2nc(Sc3cnc4nccnc4c3)nc(N3C[C@@H]4[C@H](C3)[C@@]4(N)CO)c2c1Cl	2	< 1	0.5 (≈ 1.07 µM)	4 (≈ 8.53 µM)	64 (≈ 136 µM)	0.25 (≈ 0.533 µM)	–	–	–	–	–	–	–	–	–
CCc1[nH]c2nc(Sc3ccc4nccnc4c3)nc(N3C[C@@H]4[C@@H](N)[C@@H]4C3)c2c1Cl	1	–	0.25 (≈ 0.571 µM)	0.25 (≈ 0.571 µM)	> 64	≤ 0.13	< 0.5	–	–	–	–	–	–	–	–
CCc1[nH]c2nc(Sc3ccc4cccnc4c3)nc(N3C[C@@H]4[C@@H](N)[C@@H]4C3)c2c1Cl	6	–	1 (≈ 2.29 µM)	4 (≈ 9.15 µM)	> 64	0.25 (≈ 0.572 µM)	1	–	–	–	–	–	–	–	–
CCc1[nH]c2nc(Sc3ccc4ccc[n+]([O-])c4c3)nc(N3C[C@@H]4[C@@H](N)[C@@H]4C3)c2c1Cl	< 1	–	0.25 (≈ 0.552 µM)	1 (≈ 2.21 µM)	8 (≈ 17.7 µM)	≤ 0.13	< 0.5	–	–	–	–	–	–	–	–
CCc1[nH]c2nc(Sc3cnc4ccc[n+]([O-])c4c3)nc(N3C[C@@H]4[C@@H](N)[C@@H]4C3)c2c1Cl	1.7	–	0.13 (≈ 0.286 µM)	0.13 (≈ 0.286 µM)	2 (≈ 4.41 µM)	0.03 (≈ 0.0661 µM)	< 0.3	4 (≈ 8.81 µM)	4 (≈ 8.81 µM)	32 (≈ 70.5 µM)	4	2 (≈ 4.41 µM)	0.25 (≈ 0.551 µM)	0.13	2.5
CCc1[nH]c2nc(Sc3cnc4c(c3)c(=O)ncn4C)nc(N3C[C@@H]4[C@@H](N)[C@@H]4C3)c2c1Cl	3	–	2 (≈ 4.26 µM)	2 (≈ 4.26 µM)	32 (≈ 68.2 µM)	0.5 (≈ 1.07 µM)	5	–	–	–	–	–	–	–	–
CCc1[nH]c2nc(Sc3cccnc3)nc(NC[C@H](C)O)c2c1Cl	–	171	–	32 (≈ 87.9 µM)	> 64	4 (≈ 11 µM)	–	–	–	–	–	–	–	–	173
CCc1[nH]c2nc(Sc3cnc4nccnc4c3)nc(NC[C@H](C)O)c2c1Cl	–	43	4 (≈ 9.62 µM)	8 (≈ 19.2 µM)	> 64	1 (≈ 2.4 µM)	–	–	–	–	–	–	–	–	23
CCc1[nH]c2nc(Sc3cnc4nccnc4c3)nc(N3CC(O)C3)c2c1Cl	–	7	2 (≈ 4.83 µM)	4 (≈ 9.66 µM)	> 64	0.25 (≈ 0.604 µM)	–	–	–	–	–	–	–	–	5
CCc1[nH]c2nc(Sc3cnc4nccnc4c3)nc(N3CC(C)(N)C3)c2c1Cl	69	16	16 (≈ 37.5 µM)	16 (≈ 37.5 µM)	> 64	4 (≈ 9.37 µM)	–	–	–	–	–	–	–	–	–
CCc1[nH]c2nc(Sc3cnc4nccnc4c3)nc(N3CCC(N)C3)c2c1Cl (centres undefined)	11	< 1	2 (≈ 4.68 µM)	4 (≈ 9.37 µM)	32 (≈ 75 µM)	1 (≈ 2.34 µM)	–	–	–	–	–	–	–	–	–
CCc1[nH]c2nc(Sc3cnc4nccnc4c3)nc(N3CCC(NC)C3)c2c1Cl (centres undefined)	40	2	8 (≈ 18.1 µM)	16 (≈ 36.3 µM)	> 64	2 (≈ 4.54 µM)	–	–	–	–	–	–	–	–	–
CCc1[nH]c2nc(Sc3cnc4nccnc4c3)nc(N3CCCC(N)C3)c2c1Cl (centres undefined)	131	7	16 (≈ 36.3 µM)	32 (≈ 72.6 µM)	> 64	8 (≈ 18.1 µM)	–	–	–	–	–	–	–	–	–
